Measured values published in patent US20070027218A1, “Pharmaceutical compositions comprising higher primary alcohols and ezetimibe and process of preparation thereof” (PANACEA BIOTEC LTD., priority 2004, published 2007).

System: Casein-Starch-Induced Hypercholesterolemia in Rabbits
Assay: Casein-starch-induced hypercholesterolemia in rabbits (serum lipid profile)
Format: in vivo
Settings: for LDL-C level / serum total cholesterol level: mean ± S.E.M., in mg/dL (unit assumed)
Procedure: The observed unexpected synergistic lipid lowering effect of combination of Extract-A as described herein and ezetimibe is evidenced by the test conducted in rabbits. Rabbits of either sex were procured from Central Animal House facility; Panacea Biotec Ltd., India. Animals weighing […] at the time of testing were used throughout. All animals were dosed sequentially by the oral route with Extract-A and/or ezetimibe suspended in 0.5% of carboxymethyl cellulose (CMC). A dosing volume of 2 ml/kg was used for each sequential suspension.
The fasting serum lipid profile (TC, TGs, LDL-C, HDL-C) was estimated before initiation of the experiment. […] Hypercholesterolemia was induced by feeding rabbits with wheat casein-starch diet (g/kg) containing wheat flour 333, cellulose 300, casein 270, water 20, maize oil 10, and mineral mixture (Kroon et al., 1982) for 8 weeks. Feed consumption was restricted to 100 g/day per animal. The cholesterol level was estimated every 15 days. After 60 days animals with total cholesterol level>150 mg/dl were randomized to treatment (n=6/group). Thereafter, various doses of Extract-A and/or ezetimibe were administered for another 60 days during which animals were fed with casein-starch diet. Blood samples were collected from fasted rabbits and analyzed for any alteration in serum lipid profile after 60 days of test compound(s) administration.
All the data are expressed as mean±S.E.M. (Standard Error of Mean). Student t-test was used to compare the lipid parameters between animals fed with standard and hypercholesterolemic diet. The difference between various drug treated groups was analyzed by ANOVA followed by Dunnett's test. A value of P<0.05 was considered as statistically significant.

[1] = Extract-A 100 and 200 mg/kg p.o., ezetimibe 5 and 10 mg/kg p.o., alone or in combination, vs hypercholesterolemic control rabbits
[2] = ezetimibe 5 mg/kg p.o., day 0 (before treatment)
[3] = ezetimibe 5 mg/kg p.o., day 15 (before treatment)
[4] = ezetimibe 5 mg/kg p.o., day 30 (before treatment)
[5] = ezetimibe 5 mg/kg p.o., day 60 (start of treatment)
[6] = ezetimibe 5 mg/kg p.o., day 75 (treatment from day 60)
[7] = ezetimibe 5 mg/kg p.o., day 90 (treatment from day 60)
[8] = ezetimibe 5 mg/kg p.o., day 105 (treatment from day 60)
[9] = ezetimibe 5 mg/kg p.o., day 120 (treatment from day 60)
[10] = ezetimibe 10 mg/kg p.o., day 0 (before treatment)
[11] = ezetimibe 10 mg/kg p.o., day 15 (before treatment)
[12] = ezetimibe 10 mg/kg p.o., day 30 (before treatment)
[13] = ezetimibe 10 mg/kg p.o., day 60 (start of treatment)
[14] = ezetimibe 10 mg/kg p.o., day 75 (treatment from day 60)
[15] = ezetimibe 10 mg/kg p.o., day 90 (treatment from day 60)
[16] = ezetimibe 10 mg/kg p.o., day 105 (treatment from day 60)
[17] = ezetimibe 10 mg/kg p.o., day 120 (treatment from day 60)

O=C1[C@H](CC[C@H](O)c2ccc(F)cc2)[C@@H](c2ccc(O)cc2)N1c1ccc(F)cc1 [Ez, ezetimibe]
LDL-C levels (result in words) [1]: reversed | TC levels (result in words) [1]: reversed | LDL-C level [2]: 22.40 ± 8.81 | serum total cholesterol level [2]: 52.50 ± 3.59 | LDL-C level [3]: 76.13 ± 3.11 | serum total cholesterol level [3]: 103.50 ± 2.23 | LDL-C level [4]: 131.53 ± 6.89 | serum total cholesterol level [4]: 169.83 ± 6.16 | LDL-C level [5]: 174.3 ± 8.02 | serum total cholesterol level [5]: 219.83 ± 7.5 | LDL-C level [6]: 194.07 ± 4.29 | serum total cholesterol level [6]: 236.50 ± 3.47 | LDL-C level [7]: 179.47 ± 3.74 | serum total cholesterol level [7]: 222.83 ± 2.77 | LDL-C level [8]: 156.47 ± 12.92 | serum total cholesterol level [8]: 201.00 ± 12.6 | LDL-C level [9]: 129.17 ± 9.02 | serum total cholesterol level [9]: 181.50 ± 8.55 | LDL-C level [10]: 23.70 ± 7.98 | serum total cholesterol level [10]: 46.50 ± 2.2 | LDL-C level [11]: 72.70 ± 3.92 | serum total cholesterol level [11]: 106.83 ± 3.38 | LDL-C level [12]: 125.07 ± 10.94 | serum total cholesterol level [12]: 162.50 ± 11.54 | LDL-C level [13]: 197.03 ± 13.55 | serum total cholesterol level [13]: 234.50 ± 14.24 | LDL-C level [14]: 179.83 ± 9.83 | serum total cholesterol level [14]: 220.33 ± 8.73 | LDL-C level [15]: 152.80 ± 6.17 | serum total cholesterol level [15]: 197.66 ± 5.42 | LDL-C level [16]: 126.60 ± 6.85 | serum total cholesterol level [16]: 172.16 ± 6.58 | LDL-C level [17]: 124.63 ± 6.55 | serum total cholesterol level [17]: 171.50 ± 4.7
